According to the NIST ThermoML archive (doi:10.1016/j.jct.2018.02.018):
Numbers after ± are expanded uncertainties.

Tests used:
[1] = xn = mol fraction of the nth substance listed; settings: 323.15 K, 100 kPa, Liquid; for speed of sound: Frequency=3 MHz, Single path-length method; for mass density: Vibrating tube method
[2] = refractive index (Na D-line) (dimensionless); xn = mol fraction of the nth substance listed; settings: 100 kPa, Liquid, Standard Abbe refractometry

CN(C)CCOCCO [2-(2-dimethylaminoethoxy)ethanol] + C[S+](C)[O-]
[1]
Settings | mass density [kg/m3] | speed of sound [m/s]
x2 = 0 | 930 ± 4 | 1303.9 ± 2.4
x2 = 0.0984 | 937 ± 4 | 1311.2 ± 2.3
x2 = 0.2001 | 946 ± 4 | 1318 ± 2.2
x2 = 0.2995 | 955 ± 4 | 1324.2 ± 2.1
x2 = 0.4021 | 966 ± 4 | 1331.8 ± 2
x2 = 0.4992 | 977 ± 4 | 1339.5 ± 1.9
x2 = 0.6003 | 991 ± 4 | 1348.4 ± 1.8
x2 = 0.7006 | 1006 ± 4 | 1358.4 ± 1.7
x2 = 0.795 | 1023 ± 4 | 1370.1 ± 1.6
x2 = 0.8997 | 1045 ± 4 | 1384.4 ± 1.5
x2 = 0.9505 | 1057 ± 4 | 1393.6 ± 1.5

refractive index, [2]
Settings | 293.15 K | 303.15 K | 313.15 K | 323.15 K
x2 = 0 | 1.442 ± 0.006 | 1.438 ± 0.006 | 1.435 ± 0.006 | 1.431 ± 0.006
x2 = 0.0984 | 1.444 ± 0.006 | 1.44 ± 0.006 | 1.437 ± 0.006 | 1.433 ± 0.006
x2 = 0.2001 | 1.447 ± 0.006 | 1.443 ± 0.006 | 1.439 ± 0.006 | 1.435 ± 0.006
x2 = 0.2995 | 1.449 ± 0.006 | 1.445 ± 0.006 | 1.441 ± 0.006 | 1.437 ± 0.006
x2 = 0.4021 | 1.452 ± 0.006 | 1.448 ± 0.006 | 1.444 ± 0.006 | 1.439 ± 0.006
x2 = 0.4992 | 1.455 ± 0.006 | 1.451 ± 0.006 | 1.447 ± 0.006 | 1.442 ± 0.006
x2 = 0.6003 | 1.458 ± 0.006 | 1.454 ± 0.006 | 1.45 ± 0.006 | 1.446 ± 0.006
x2 = 0.7006 | 1.462 ± 0.006 | 1.458 ± 0.006 | 1.454 ± 0.006 | 1.45 ± 0.006
x2 = 0.795 | 1.467 ± 0.006 | 1.462 ± 0.006 | 1.458 ± 0.006 | 1.454 ± 0.006
x2 = 0.8997 | 1.472 ± 0.006 | 1.468 ± 0.006 | 1.464 ± 0.006 | 1.459 ± 0.006
x2 = 0.9505 | 1.476 ± 0.006 | 1.471 ± 0.006 | 1.467 ± 0.006 | 1.461 ± 0.006
